Results: US12103920B2, “Cereblon binding compounds, compositions thereof, and methods of treatment therewith” (Celgene Corporation, priority 2020, dated 2024)
Where a name gives a salt, the structure may show the parent alone.

Molecular target: T1, AR protein in VCaP cells (Homo sapiens, UniProt P10275)
T1 construct: endogenous in cells; host or cells: VCaP cells
T1 sequence (P10275 1-920): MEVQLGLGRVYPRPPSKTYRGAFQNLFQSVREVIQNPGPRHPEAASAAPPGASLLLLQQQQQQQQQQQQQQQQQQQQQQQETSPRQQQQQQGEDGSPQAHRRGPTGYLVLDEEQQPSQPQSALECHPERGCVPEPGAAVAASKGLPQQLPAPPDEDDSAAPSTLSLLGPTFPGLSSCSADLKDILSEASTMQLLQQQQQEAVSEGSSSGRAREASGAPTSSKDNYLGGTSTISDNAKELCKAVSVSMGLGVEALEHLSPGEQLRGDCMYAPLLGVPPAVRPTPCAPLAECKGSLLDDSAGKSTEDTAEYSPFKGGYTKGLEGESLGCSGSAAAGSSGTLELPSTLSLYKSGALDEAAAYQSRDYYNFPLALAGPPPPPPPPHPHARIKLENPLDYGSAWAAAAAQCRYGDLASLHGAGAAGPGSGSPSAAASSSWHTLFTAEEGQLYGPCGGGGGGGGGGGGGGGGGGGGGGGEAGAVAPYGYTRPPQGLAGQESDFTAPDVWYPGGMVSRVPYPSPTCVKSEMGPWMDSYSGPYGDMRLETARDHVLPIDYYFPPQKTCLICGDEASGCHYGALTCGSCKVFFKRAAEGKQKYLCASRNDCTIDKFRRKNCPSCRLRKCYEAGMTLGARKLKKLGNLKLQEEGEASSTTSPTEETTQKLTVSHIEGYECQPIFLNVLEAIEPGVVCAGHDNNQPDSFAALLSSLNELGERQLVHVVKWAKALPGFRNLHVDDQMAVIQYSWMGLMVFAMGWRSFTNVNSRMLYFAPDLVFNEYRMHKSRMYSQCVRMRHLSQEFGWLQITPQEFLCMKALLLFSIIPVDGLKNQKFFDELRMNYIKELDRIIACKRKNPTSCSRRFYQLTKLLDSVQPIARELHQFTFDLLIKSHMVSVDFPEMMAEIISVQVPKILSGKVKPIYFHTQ
Test: VCAP AR Degradation Assay
Type: cell-based
Conditions: 24 h, AR ELISA; for DC50: concentration at 50% of DMSO control (50% AR degradation); for Y: lowest measured AR level normalized to DMSO control
Method: VCAP AR Degradation Assay. Test compounds were pre-dispensed into a Corning CellBind 96-well clear bottom plate (Cat #3300) using an acoustic dispenser to make a 10-point concentration series at 1:3 dilution for each compound. The final top concentration of each compound was 5 μM. DMSO at a final concentration of 0.1% was used as a control. VCaP cells cultured in DMEM with 8% fetal bovine serum (FBS) were seeded at 50K cells per well in a 200 μL volume into the compound plate and incubated at 37° C. in a CO2 incubator for 24 h. The medium was carefully removed from the cells and the plate was placed on ice. One hundred μL of ice-cold 1× cell lysis buffer from Cell Signaling Technologies (Cat #9803) was added to each well of the cells and the plate was incubated at 4° C. on a shaker for 1 h. Fifteen μL of cell lysate was used for AR ELISA detection using a PathScan Total Sandwich AR ELISA kit (Cell Signaling Technology, Cat #12580). AR levels in compound-treated wells were normalized to that of DMSO control and expressed as percent of control (PoC) (y). A Four Parameter Logistic Model (Sigmoidal Dose-Response Model) was used to determine the compound's DC50, and EC50, using the following equation: y=(A+((B−A)/(1+((C/x)^D)))) • A=YMin (lowest AR level normalized to DMSO control in response to compound treatment, as determined by curve fit) • B=YMax (maximum AR level as determined by curve fit) • C=EC50 • D=Hill Slope • x=compound concentration • EC50=the concentration of compound when y=(YMax−YMin)/2 • DC50=the concentration of the compound when y=50% of DMSO control (50% AR degradation) • y=AR protein level normalized to DMSO control
The lowest measured AR level normalized to DMSO control in response to compound treatment, termed Y value, was used to characterize the compound-mediated AR degradation efficiency.

SMILES	DC50 [nM]	Y
CC1(C)C(=O)N(c2cnc(C#N)c(C(F)(F)F)c2)C(=S)N1[C@H]1CC[C@H](OCCN2CCN(CC(=O)Nc3cccc(NC4CCC(=O)NC4=O)c3)[C@@H](C(F)(F)F)C2)CC1 (stereo partly drawn) [Cmpd 20, 2-((R)-4-(2-((trans-4-(3-(6-Cyano-5-(trifluoromethyl)pyridin-3-yl)-5,5-dimethyl-4-oxo-2-thioxoimidazolidin-1-yl)cyclohexyl)oxy)ethyl)-2-(trifluoromethyl)piperazin-1-yl)-N-(3-((2,6-dioxopiperidin-3-yl)amino)phenyl)acetamide hydrochloride]	≤ 5	* (0<Y≤15%)
C[C@@H]1C[C@H](CCO[C@H]2CC[C@H](N3C(=S)N(c4cnc(C#N)c(C(F)(F)F)c4)C(=O)C3(C)C)CC2)C[C@H](C)N1CC(=O)Nc1cccc(NC2CCC(=O)NC2=O)c1 (stereo partly drawn) [Cmpd 21, 2-((2S,4r,6R)-4-(2-((trans-4-(3-(6-Cyano-5-(trifluoromethyl)pyridin-3-yl)-5,5-dimethyl-4-oxo-2-thioxoimidazolidin-1-yl)cyclohexyl)oxy)ethyl)-2,6-dimethylpiperidin-1-yl)-N-(3-((2,6-dioxopiperidin-3-yl)amino)phenyl)acetamide]	≤ 5	* (0<Y≤15%)
C[C@@H]1C[C@@H](CCO[C@H]2CC[C@H](N3C(=S)N(c4cnc(C#N)c(C(F)(F)F)c4)C(=O)C3(C)C)CC2)C[C@H](C)N1CC(=O)Nc1cccc(NC2CCC(=O)NC2=O)c1 (stereo partly drawn) [Cmpd 22, 2-((2S,4s,6R)-4-(2-(((trans)-4-(3-(6-Cyano-5-(trifluoromethyl)pyridin-3-yl)-5,5-dimethyl-4-oxo-2-thioxoimidazolidin-1-yl)cyclohexyl)oxy)ethyl)-2,6-dimethylpiperidin-1-yl)-N-(3-((2,6-dioxopiperidin-3-yl)amino)phenyl)acetamide]	≤ 5	* (0<Y≤15%)
CC1(C)C(=O)N(c2ccc(C#N)c(C(F)(F)F)c2)C(=S)N1[C@H]1CC[C@H](OCCN2CCN(CC(=O)Nc3cc(F)cc(NC4CCC(=O)NC4=O)c3)[C@@H](C(F)(F)F)C2)CC1 (stereo partly drawn) [Cmpd 23, 2-((R)-4-(2-(((trans)-4-(3-(4-Cyano-3-(trifluoromethyl)phenyl)-5,5-dimethyl-4-oxo-2-thioxoimidazolidin-1-yl)cyclohexyl)oxy)ethyl)-2-(trifluoromethyl)piperazin-1-yl)-N-(3-((2,6-dioxopiperidin-3-yl)amino)-5-fluorophenyl)acetamide]	5 to 10	* (0<Y≤15%)
CC1(C)C(=O)N(c2cnc(C#N)c(C(F)(F)F)c2)C(=S)N1[C@H]1CC[C@H](OCCN2CCN(CC(=O)Nc3cc(F)cc(NC4CCC(=O)NC4=O)c3)[C@@H](C(F)(F)F)C2)CC1 (stereo partly drawn) [Cmpd 24, 2-((R)-4-(2-(((trans)-4-(3-(6-Cyano-5-(trifluoromethyl)pyridin-3-yl)-5,5-dimethyl-4-oxo-2-thioxoimidazolidin-1-yl)cyclohexyl)oxy)ethyl)-2-(trifluoromethyl)piperazin-1-yl)-N-(3-((2,6-dioxopiperidin-3-yl)amino)-5-fluorophenyl)acetamide]	≤ 5	* (0<Y≤15%)
CC1(C)C(=O)N(c2cnc(C#N)c(C(F)(F)F)c2)C(=S)N1[C@H]1CC[C@H](CCCN2CCN(CC(=O)Nc3cccc(NC4CCC(=O)NC4=O)c3)[C@@H](C(F)(F)F)C2)CC1 (stereo partly drawn) [Cmpd 25, 2-((R)-4-(3-((trans)-4-(3-(6-Cyano-5-(trifluoromethyl)pyridin-3-yl)-5,5-dimethyl-4-oxo-2-thioxoimidazolidin-1-yl)cyclohexyl)propyl)-2-(trifluoromethyl)piperazin-1-yl)-N-(3-((2,6-dioxopiperidin-3-yl)amino)phenyl)acetamide]	5 to 10	* (0<Y≤15%)
